Reference: ChEMBL document CHEMBL4507327 (2021)

Key:
Mus musculus = species: Mus musculus; experiment: Inhibition of Phorbol Ester at 10 µM in the Eurofins-Panlabs radioligand binding assay (Eurofins_assay_264500); parameters: ligand concentration 3 nM; conditions: Compound concentration 10.0 uM
[1] = molecular target: Serine/threonine-protein kinase PLK3 (Homo sapiens, UniProt Q9H4B4); experiment: PLK3(PLK3PHY1) Takeda global kinase panel
[2] = molecular target: Serine/threonine-protein kinase LATS2 (Homo sapiens, UniProt Q9NRM7); experiment: LATS2(LAT2LGY1) Takeda global kinase panel
[3] = molecular target: Protein-tyrosine kinase 2-beta (Homo sapiens, UniProt Q14289); experiment: PYK2(PT2BLHF1) Takeda global kinase panel
[4] = molecular target: Serine/threonine-protein kinase SIK3 (Homo sapiens, UniProt Q9Y2K2); experiment: QSK(SIK3LGP1) Takeda global kinase panel
[5] = molecular target: Casein kinase II subunit alpha' (Homo sapiens, UniProt P19784); experiment: CK2alpha2(C2A2LGK1) Takeda global kinase panel
[6] = molecular target: T1, 5-hydroxytryptamine receptor 1A (Homo sapiens) (UniProt P08908); conditions: Compound concentration 10.0 uM
T1 sequence (whole entry): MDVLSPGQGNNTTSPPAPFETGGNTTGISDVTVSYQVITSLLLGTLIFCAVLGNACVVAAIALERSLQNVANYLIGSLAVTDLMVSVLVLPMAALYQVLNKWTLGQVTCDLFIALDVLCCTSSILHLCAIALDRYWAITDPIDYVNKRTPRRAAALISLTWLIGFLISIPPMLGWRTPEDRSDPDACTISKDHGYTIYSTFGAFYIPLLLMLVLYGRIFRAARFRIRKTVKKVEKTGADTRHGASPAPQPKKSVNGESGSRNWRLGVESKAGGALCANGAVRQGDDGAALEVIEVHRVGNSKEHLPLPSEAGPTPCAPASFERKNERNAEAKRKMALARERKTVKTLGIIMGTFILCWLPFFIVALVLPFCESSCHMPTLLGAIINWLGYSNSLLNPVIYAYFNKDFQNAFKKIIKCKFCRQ

Ephrin type-A receptor 5 = Ephrin type-A receptor 5 (Homo sapiens, UniProt P54756); experiment: EphA5(EPA5MGF1) Takeda global kinase panel
[7] = molecular target: NUAK family SNF1-like kinase 2 (Homo sapiens, UniProt Q9H093); experiment: NuaK2(NUA2LHY1) Takeda global kinase panel
[8] = molecular target: Protein kinase C eta type (Homo sapiens, UniProt P24723); experiment: PKCeta(PRKHLGRA) Takeda global kinase panel
Chain of Protein kinase C eta type (P24723 whole entry): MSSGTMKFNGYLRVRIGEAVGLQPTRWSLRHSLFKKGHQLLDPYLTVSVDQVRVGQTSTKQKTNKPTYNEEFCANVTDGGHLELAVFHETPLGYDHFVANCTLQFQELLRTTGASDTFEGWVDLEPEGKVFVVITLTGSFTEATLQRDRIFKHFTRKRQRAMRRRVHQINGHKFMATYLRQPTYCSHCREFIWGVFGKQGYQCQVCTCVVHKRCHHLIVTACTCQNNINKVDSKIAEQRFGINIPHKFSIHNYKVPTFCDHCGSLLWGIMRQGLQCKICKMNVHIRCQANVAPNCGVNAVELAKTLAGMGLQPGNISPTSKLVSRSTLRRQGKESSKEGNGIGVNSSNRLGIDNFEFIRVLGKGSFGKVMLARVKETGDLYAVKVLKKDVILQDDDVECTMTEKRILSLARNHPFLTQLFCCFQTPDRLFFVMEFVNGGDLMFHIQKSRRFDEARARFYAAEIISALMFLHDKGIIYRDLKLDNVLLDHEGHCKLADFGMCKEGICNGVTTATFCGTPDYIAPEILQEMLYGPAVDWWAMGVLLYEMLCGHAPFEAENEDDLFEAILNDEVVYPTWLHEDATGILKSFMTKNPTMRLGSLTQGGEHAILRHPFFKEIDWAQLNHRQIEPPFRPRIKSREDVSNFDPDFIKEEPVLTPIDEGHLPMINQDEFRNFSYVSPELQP

[9] = molecular target: Sodium-dependent dopamine transporter (Homo sapiens) (UniProt Q01959); conditions: Compound concentration 10.0 uM
[10] = molecular target: Serine/threonine-protein kinase 32A (Homo sapiens, UniProt Q8WU08); experiment: YANK1(S32APHY1) Takeda global kinase panel
[11] = molecular target: Protein kinase C delta type (Homo sapiens, UniProt Q05655); experiment: PKCdelta(PRKDPFP1) Takeda global kinase panel
Chain of Protein kinase C delta type (Q05655 whole entry): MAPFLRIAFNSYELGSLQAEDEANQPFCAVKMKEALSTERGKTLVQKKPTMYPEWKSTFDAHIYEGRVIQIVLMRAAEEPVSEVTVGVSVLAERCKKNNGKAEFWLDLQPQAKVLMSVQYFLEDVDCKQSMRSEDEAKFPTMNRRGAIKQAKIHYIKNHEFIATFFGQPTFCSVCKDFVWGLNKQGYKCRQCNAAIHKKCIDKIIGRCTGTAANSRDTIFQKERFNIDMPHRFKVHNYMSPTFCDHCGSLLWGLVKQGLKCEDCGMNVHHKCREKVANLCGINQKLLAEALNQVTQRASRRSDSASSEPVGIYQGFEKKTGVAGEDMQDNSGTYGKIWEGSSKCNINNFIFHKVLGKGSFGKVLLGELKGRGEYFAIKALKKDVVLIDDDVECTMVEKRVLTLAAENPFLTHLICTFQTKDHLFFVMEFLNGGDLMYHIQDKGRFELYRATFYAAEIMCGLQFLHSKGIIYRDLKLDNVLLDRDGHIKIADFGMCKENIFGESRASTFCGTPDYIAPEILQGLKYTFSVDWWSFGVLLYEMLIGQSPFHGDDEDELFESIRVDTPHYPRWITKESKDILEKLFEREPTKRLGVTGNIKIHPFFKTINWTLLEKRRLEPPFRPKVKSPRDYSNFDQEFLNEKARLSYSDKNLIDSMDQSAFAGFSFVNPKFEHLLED

Activated CDC42 kinase 1 = Activated CDC42 kinase 1 (Homo sapiens, UniProt Q07912); experiment: Ack(TNK2LGF1) Takeda global kinase panel
[12] = molecular target: Epidermal growth factor receptor (Homo sapiens, UniProt P00533); experiment: EGFR(EGFRMGB1) Takeda global kinase panel
Chain of Epidermal growth factor receptor (P00533 whole entry): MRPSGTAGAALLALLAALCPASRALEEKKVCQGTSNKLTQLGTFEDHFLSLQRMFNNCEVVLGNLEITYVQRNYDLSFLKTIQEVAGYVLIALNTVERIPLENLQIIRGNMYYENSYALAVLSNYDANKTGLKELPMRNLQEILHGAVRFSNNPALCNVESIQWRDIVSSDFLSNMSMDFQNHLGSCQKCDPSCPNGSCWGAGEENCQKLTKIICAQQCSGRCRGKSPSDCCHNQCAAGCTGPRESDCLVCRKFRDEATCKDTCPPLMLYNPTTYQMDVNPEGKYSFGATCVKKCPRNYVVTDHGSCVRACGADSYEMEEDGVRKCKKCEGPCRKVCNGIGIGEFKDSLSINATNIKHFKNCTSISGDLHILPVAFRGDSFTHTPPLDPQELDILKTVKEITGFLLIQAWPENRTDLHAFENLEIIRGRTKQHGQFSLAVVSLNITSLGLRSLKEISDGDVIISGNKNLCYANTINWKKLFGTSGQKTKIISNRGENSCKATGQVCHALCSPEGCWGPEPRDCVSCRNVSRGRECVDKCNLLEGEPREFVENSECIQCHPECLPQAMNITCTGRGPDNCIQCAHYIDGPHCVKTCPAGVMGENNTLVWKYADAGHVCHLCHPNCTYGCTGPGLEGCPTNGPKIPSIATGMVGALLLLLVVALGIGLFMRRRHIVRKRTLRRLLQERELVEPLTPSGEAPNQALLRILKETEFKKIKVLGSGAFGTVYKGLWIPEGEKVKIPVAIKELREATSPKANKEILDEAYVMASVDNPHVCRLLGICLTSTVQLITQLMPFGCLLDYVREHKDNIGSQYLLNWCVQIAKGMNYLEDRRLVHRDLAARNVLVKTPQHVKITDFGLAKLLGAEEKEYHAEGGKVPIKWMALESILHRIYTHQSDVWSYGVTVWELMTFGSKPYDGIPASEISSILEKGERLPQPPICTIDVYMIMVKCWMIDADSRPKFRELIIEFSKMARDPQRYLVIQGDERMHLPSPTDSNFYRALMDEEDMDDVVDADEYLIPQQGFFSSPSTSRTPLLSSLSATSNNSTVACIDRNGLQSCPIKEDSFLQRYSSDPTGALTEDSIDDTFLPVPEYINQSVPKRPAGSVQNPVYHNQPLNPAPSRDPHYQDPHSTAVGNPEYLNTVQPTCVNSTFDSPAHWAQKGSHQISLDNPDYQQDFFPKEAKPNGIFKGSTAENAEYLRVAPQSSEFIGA

[13] = molecular target: Cysteinyl leukotriene receptor 1 (Homo sapiens) (UniProt Q9Y271); experiment: Inhibition of Leukotriene, Cysteinyl CysLT1 at 10 µM in the Eurofins-Panlabs radioligand binding assay (Eurofins_assay_250460); parameters: ligand concentration 0.3 nM, non-specific ligand with concentration 0.3 µM Leukotriene D4, incubation time 30 min, incubation temperature 25 °C; conditions: Compound concentration 10.0 uM
[14] = molecular target: Calcium/calmodulin-dependent protein kinase type IV (Homo sapiens, UniProt Q16566); experiment: CaMK4(CAM4LGY1) Takeda global kinase panel
[15] = molecular target: Calcium/calmodulin-dependent protein kinase type 1G (Homo sapiens, UniProt Q96NX5); experiment: CaMK1gamma(CA1GLGN1) Takeda global kinase panel
[16] = molecular target: Serine/threonine-protein kinase PLK1 (Homo sapiens, UniProt P53350); experiment: PLK1(PLK1LGY1) Takeda global kinase panel
Chain of Serine/threonine-protein kinase PLK1 (P53350 whole entry): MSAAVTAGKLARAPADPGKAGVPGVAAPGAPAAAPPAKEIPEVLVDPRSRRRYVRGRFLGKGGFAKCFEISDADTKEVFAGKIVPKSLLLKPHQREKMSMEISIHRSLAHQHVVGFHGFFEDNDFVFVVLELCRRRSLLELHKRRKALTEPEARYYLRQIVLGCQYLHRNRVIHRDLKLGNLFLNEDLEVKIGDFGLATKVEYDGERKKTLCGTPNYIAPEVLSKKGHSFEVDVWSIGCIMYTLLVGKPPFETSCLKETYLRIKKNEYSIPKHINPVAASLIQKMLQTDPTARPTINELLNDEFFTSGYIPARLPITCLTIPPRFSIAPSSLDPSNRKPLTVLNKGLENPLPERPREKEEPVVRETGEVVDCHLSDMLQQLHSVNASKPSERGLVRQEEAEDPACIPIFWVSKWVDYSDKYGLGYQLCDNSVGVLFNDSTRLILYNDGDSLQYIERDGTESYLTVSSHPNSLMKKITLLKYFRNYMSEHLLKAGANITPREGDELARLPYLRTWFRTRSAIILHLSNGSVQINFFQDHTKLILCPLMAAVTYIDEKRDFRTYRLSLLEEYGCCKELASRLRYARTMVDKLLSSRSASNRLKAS

[17] = molecular target: ALK tyrosine kinase receptor (Homo sapiens, UniProt Q9UM73); experiment: ALK(ALK1LGY1) Takeda global kinase panel
[18] = molecular target: Beta-adrenergic receptor kinase 1 (Homo sapiens, UniProt P25098); experiment: BARK1 [GRK2(ADR1LGG5)] Takeda global kinase panel
Chain of Beta-adrenergic receptor kinase 1 (P25098 whole entry): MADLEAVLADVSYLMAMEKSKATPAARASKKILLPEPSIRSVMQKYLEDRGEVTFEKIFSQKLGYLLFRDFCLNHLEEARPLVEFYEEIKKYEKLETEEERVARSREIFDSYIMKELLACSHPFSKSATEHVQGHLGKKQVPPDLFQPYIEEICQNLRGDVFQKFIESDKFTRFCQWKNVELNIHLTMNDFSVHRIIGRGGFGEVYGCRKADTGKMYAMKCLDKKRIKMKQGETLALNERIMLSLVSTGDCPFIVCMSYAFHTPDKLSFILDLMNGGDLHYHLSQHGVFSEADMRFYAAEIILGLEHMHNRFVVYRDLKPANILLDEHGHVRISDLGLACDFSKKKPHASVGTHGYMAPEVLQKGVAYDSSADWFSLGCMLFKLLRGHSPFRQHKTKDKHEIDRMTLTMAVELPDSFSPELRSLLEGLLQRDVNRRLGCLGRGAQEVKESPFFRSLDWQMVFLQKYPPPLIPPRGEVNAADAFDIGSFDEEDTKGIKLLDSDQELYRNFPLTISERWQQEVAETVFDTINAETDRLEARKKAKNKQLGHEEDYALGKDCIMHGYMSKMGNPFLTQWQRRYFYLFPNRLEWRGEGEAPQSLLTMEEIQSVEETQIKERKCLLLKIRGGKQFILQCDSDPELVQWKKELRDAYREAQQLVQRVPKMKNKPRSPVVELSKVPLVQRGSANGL

[19] = molecular target: Ribosomal protein S6 kinase beta-1 (Homo sapiens, UniProt P23443); experiment: p70S6K(R6B1CGF1) Takeda global kinase panel
[20] = molecular target: Phosphorylase b kinase gamma catalytic chain, skeletal muscle/heart isoform (Homo sapiens, UniProt Q16816); experiment: PhKgamma1(PHG1LHY1) Takeda global kinase panel
[21] = molecular target: Serine/threonine-protein kinase ICK (Homo sapiens, UniProt Q9UPZ9); experiment: ICK(ICK1LGP1) Takeda global kinase panel
[22] = molecular target: Casein kinase II subunit alpha (Homo sapiens, UniProt P68400); experiment: CK2alpha1(C2A1LGF1) Takeda global kinase panel
[23] = molecular target: T2, Alpha-1A adrenergic receptor (Homo sapiens) (UniProt P35348); experiment: Inhibition of Adrenergic alpha1A at compound concentration of 10.0 uM in the Eurofins-Panlabs radioligand binding assay (Eurofins_assay_203110); parameters: ligand concentration 0.25 nM; conditions: Rattus norvegicus; Compound concentration 10.0 uM
T2 sequence (whole entry): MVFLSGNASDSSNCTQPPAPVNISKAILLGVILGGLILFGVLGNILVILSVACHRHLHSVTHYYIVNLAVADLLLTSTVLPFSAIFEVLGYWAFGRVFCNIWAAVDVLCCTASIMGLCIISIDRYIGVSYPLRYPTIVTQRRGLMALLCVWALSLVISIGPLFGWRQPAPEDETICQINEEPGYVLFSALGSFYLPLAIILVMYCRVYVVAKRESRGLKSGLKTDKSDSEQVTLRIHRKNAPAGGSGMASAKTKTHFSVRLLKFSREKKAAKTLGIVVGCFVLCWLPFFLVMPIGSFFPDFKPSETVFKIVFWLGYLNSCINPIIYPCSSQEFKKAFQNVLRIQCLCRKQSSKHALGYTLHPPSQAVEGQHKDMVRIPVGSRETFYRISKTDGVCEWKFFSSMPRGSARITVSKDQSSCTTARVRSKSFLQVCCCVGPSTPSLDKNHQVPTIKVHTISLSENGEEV

[24] = molecular target: Platelet-derived growth factor receptor beta (Homo sapiens, UniProt P09619); experiment: PDGFRbeta(PDGBIHC1) Takeda global kinase panel
[25] = molecular target: Tyrosine-protein kinase FRK (Homo sapiens, UniProt P42685); experiment: FRK(FRK1LGF1) Takeda global kinase panel
Rattus norvegicus = species: Rattus norvegicus; experiment: Inhibition of Rolipram at 10 µM in the Eurofins-Panlabs radioligand binding assay (Eurofins_assay_268811); type: protein assay; parameters: ligand concentration 1.8 nM; conditions: Compound concentration 10.0 uM
[26] = molecular target: Phosphatidylinositol 4,5-bisphosphate 3-kinase catalytic subunit delta isoform (Homo sapiens, UniProt O00329); experiment: PI3KCD(PI3DCGRK) Takeda global kinase panel
Chain of Phosphatidylinositol 4,5-bisphosphate 3-kinase catalytic subunit delta isoform (O00329 whole entry, canonical isoform): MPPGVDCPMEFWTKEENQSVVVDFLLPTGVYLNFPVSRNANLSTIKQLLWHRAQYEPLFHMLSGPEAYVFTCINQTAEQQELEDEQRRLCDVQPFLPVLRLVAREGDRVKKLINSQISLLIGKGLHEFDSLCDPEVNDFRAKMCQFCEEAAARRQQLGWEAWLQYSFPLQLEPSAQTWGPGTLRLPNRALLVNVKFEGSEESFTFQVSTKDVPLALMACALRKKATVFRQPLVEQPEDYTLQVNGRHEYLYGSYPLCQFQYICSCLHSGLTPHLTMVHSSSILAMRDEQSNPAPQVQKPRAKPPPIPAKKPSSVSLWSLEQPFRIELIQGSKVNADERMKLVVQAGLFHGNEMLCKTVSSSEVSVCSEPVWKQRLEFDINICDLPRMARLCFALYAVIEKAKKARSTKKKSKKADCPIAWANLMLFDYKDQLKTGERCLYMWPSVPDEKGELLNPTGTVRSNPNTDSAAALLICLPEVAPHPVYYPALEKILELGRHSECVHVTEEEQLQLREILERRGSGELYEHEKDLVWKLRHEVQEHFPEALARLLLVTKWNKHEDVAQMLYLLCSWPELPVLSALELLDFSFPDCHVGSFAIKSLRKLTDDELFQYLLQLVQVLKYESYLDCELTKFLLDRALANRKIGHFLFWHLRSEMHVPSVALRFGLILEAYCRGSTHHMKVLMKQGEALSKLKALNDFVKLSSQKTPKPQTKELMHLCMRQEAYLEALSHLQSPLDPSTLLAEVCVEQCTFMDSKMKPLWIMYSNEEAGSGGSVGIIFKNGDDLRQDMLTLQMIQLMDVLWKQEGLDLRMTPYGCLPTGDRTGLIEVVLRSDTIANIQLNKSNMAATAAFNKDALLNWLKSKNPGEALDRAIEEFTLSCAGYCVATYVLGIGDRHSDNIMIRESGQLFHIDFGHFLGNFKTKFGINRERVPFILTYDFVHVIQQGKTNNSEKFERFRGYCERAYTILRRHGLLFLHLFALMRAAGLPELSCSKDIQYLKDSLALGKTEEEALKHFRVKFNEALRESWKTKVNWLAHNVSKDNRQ

Ephrin type-A receptor 4 = Ephrin type-A receptor 4 (Homo sapiens, UniProt P54764); experiment: EphA4(EPA4LGF1) Takeda global kinase panel
[27] = molecular target: Serine/threonine-protein kinase 4 (Homo sapiens, UniProt Q13043); experiment: MST1(STK4LGF1) Takeda global kinase panel
[28] = molecular target: Death-associated protein kinase 2 (Homo sapiens, UniProt Q9UIK4); experiment: DAPK2(DAP2LGF1) Takeda global kinase panel

Work on CN1C(=O)[C@@H](N2CCc3cn(Cc4ccccc4)nc3C2=O)COc2ccccc21 [TP-030-1] yielded an inhibition (Mus musculus) of -3%, an IC50 [1] of 1 µM and an IC50 [2] of 1 µM. For the same compound, the IC50 [3] was 1 µM, the IC50 [4] was 1 µM and the IC50 [5] was 1 µM. For the same compound, the inhibition [6] was -6%, the IC50 (Ephrin type-A receptor 5) was 1 µM and the IC50 [7] was 1 µM. It also gave an IC50 [8] of 1 µM, an inhibition [9] of 29% and an IC50 [10] of 1 µM. The IC50 [11] was 1 µM, the IC50 (Activated CDC42 kinase 1) was 1 µM and the IC50 [12] was 1 µM. The inhibition [13] was 0%, the IC50 [14] was 1 µM and the IC50 [15] was 1 µM. It also gave an IC50 [16] of 1 µM, an IC50 [17] of 1 µM and an IC50 [18] of 1 µM. The IC50 [19] was 1 µM, the IC50 [20] was 1 µM and the IC50 [21] was 1 µM. It also gave an IC50 [22] of 1 µM, an inhibition [23] of -1% and an IC50 [24] of 1 µM. The IC50 [25] was 1 µM, the inhibition (Rattus norvegicus) was 0% and the IC50 [26] was 1 µM. The IC50 (Ephrin type-A receptor 4) was 1 µM, the IC50 [27] was 1 µM and the IC50 [28] was 1 µM.

CN1C(=O)[C@@H](N2CCc3cn(CC4CCS(=O)(=O)CC4)nc3C2=O)COc2ccccc21 [TP-030n] gave an inhibition (Mus musculus) of 7%, an IC50 [1] of 1 µM and an IC50 [2] of 1 µM. It also gave an IC50 [3] of 1 µM, an IC50 [4] of 1 µM and an IC50 [5] of 1 µM. For the same compound, the inhibition [6] was 3%, the IC50 (Ephrin type-A receptor 5) was 1 µM and the IC50 [7] was 1 µM. It also gave an IC50 [8] of 1 µM, an inhibition [9] of 10% and an IC50 [10] of 1 µM. The IC50 [11] was 1 µM, the IC50 (Activated CDC42 kinase 1) was 1 µM and the IC50 [12] was 1 µM. The inhibition [13] was 0%, the IC50 [14] was 1 µM and the IC50 [15] was 1 µM. For the same compound, the IC50 [16] was 1 µM, the IC50 [17] was 1 µM and the IC50 [18] was 1 µM. For the same compound, the IC50 [19] was 1 µM, the IC50 [20] was 1 µM and the IC50 [21] was 1 µM. It also gave an IC50 [22] of 1 µM, an inhibition [23] of 1% and an IC50 [24] of 1 µM. The IC50 [25] was 1 µM, the inhibition (Rattus norvegicus) was 1% and the IC50 [26] was 1 µM. For the same compound, the IC50 (Ephrin type-A receptor 4) was 1 µM, the IC50 [27] was 1 µM and the IC50 [28] was 1 µM.
